Measurements published in patent publication US20240254138A1, “TRICYCLIC PYRIMIDINES AS CYCLIN-DEPENDENT KINASE 7 (CDK7) INHIBITORS” (JANSSEN PHARMACEUTICA NV, priority 2021, published 2024).
Like-named read-outs stand apart in the source and are kept apart here.

Key:
[1] = tested on: RNA Polymerase II Serine 5 phosphorylation in A549 cells overexpressing CDK7-mutant (C312S); test: Imaging-based cellular RNA PolII Ser5 phosphorylation assay in A549 cells overexpressing CDK7-mutant (C312S); format: cell-based, human; settings: for IC50: Homo sapiens
In short: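 Readout was automated imaging of anti-phospho-Ser5 Rpb1 CTD immunofluorescence, with IC50 fitted to % control versus concentration. Cells were A549 stably overexpressing non-covalently targetable CDK7 C312S alongside wild-type, exposed to compound 3 h at 37 °C. DMSO and 10 μM reference compound served as controls.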

[2] = tested on: RNA Polymerase II Serine 5 phosphorylation (Rpb1 CTD, downstream substrate of CDK7) in A549 cells; test: Imaging-based cellular RNA PolII Ser5 phosphorylation assay in A549 cells; format: cell-based, human; settings: for IC50: Homo sapiens
In short: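 IC50 derived by fitting % control (DMSO high, 10 μM reference low) against concentration, with Hill slope. Readout: high-content imaging of phospho-Ser5 Rpb1 CTD antibody staining in fixed, permeabilized A549 cells exposed to compound 3 h after 20 h culture in 1% FBS DMEM.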

[3] = target: CDK7/cyclinH/MAT1 trimeric complex (Homo sapiens, UniProt P50613); test: In vitro CDK7 assay, potency of irreversible covalent inhibitors (kinact/KI), coupled PK/LDH ADP readout at 340 nm; settings: for Ki: CDK7 (20 nM enz.) (KI, μM), 20 nM enzyme
CDK7/cyclinH/MAT1 trimeric complex, sequence (P50613 whole entry): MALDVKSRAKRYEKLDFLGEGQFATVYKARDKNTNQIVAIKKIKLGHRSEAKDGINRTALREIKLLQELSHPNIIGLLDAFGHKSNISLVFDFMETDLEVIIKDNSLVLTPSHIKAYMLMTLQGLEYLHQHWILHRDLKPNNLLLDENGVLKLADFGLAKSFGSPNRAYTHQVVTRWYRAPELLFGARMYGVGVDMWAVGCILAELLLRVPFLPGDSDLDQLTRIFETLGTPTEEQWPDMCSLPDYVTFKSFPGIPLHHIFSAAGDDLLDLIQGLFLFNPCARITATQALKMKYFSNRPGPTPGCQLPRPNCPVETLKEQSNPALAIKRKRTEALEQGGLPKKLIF
CDK7/cyclinH/MAT1 trimeric complex, sequence (P51946 whole entry partner): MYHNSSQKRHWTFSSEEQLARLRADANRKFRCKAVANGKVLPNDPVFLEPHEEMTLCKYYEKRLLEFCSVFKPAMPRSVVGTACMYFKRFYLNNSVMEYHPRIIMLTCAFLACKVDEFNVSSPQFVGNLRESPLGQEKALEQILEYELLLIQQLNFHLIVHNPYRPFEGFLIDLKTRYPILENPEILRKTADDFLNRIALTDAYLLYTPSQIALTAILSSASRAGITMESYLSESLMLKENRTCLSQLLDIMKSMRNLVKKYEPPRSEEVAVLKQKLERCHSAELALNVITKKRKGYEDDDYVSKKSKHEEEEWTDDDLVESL
CDK7/cyclinH/MAT1 trimeric complex, sequence (P51948 whole entry partner): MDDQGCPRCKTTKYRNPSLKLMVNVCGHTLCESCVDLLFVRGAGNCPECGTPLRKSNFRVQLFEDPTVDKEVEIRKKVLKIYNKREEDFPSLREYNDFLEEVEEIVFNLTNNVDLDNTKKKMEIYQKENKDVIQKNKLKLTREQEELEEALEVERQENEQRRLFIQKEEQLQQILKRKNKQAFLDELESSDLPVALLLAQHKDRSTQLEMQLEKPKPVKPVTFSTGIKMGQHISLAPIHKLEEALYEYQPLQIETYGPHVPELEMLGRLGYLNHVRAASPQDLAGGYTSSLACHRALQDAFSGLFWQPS

[4] = A549, A549 cells overexpressing CDK7-mutant (C312S), RNA PolII Ser5 phosphorylation, averaged over all measurements, read-out: CDK7_A549 mutant hCDK7(pIC50) (converted)
[5] = A549, A549 cells, wild-type CDK7, RNA PolII Ser5 phosphorylation, averaged over all measurements, read-out: CDK7_A549 Wild-type CDK7 (pIC50) (converted)
[6] = read-out: CDK7 (20 nM enz.) (kinact, s^−1), 20 nM enzyme
[7] = read-out: CDK7 (20 nM enz.) (kinact/KI, M^−1*s^−1), 20 nM enzyme
[8] = read-out: CDK7 (20 nM enz.) (kobs/[I], M^−1*s^−1), 20 nM enzyme

Compound | IC50 [1, 4] [nM] | IC50 [2, 5] [nM] | Ki [3] [µM] | kinact [3, 6] [s⁻¹] | kinact/KI [3, 7] [M⁻¹ s⁻¹] | kinact/KI [3, 8] [M⁻¹ s⁻¹] | CDK7_A549 mutant hCDK7(pIC50) ([1]; A549 cells overexpressing CDK7-mutant (C312S), RNA PolII Ser5 phosphorylation, averaged over all measurements) | CDK7_A549 Wild-type CDK7 (pIC50) ([2]; A549 cells, wild-type CDK7, RNA PolII Ser5 phosphorylation, averaged over all measurements) | IC50 ([1]; A549, read-out: CDK7_A549 mutant hCDK7(pIC50) (converted)) [nM] | IC50 ([2]; A549, read-out: CDK7_A549 Wild-type CDK7 (pIC50) (converted)) [nM] | kinact ([3]; read-out: CDK7 (20 nM enz.) (kinact, s^−1)) [s⁻¹] | kinact/KI ([3]; read-out: CDK7 (20 nM enz.) (kinact/KI, M^−1*s^−1)) [M⁻¹ s⁻¹]
C=CC(=O)N1CC(N2CCC(c3cc4c(c(C(N)=O)c3)OCc3c(C5CCOCC5)ccnc3N4)CC2)C1 [Compound 158] | > 3980 | 126 | 0.204 | 7.68e-05 | 377 |  |  |  |  |  |  | 
C=CC(=O)N1CC(N2CCC(O)(c3cc(C)c4c(c3)Nc3nccc(C5CCOCC5)c3CO4)CC2)C1 [Compound 159] | > 10000 | 70.8 | 0.144 | 0.000115 | 794 |  |  |  |  |  |  | 
C#Cc1cc2c(cc1C1CCN(C3CN(C(=O)C=C)C3)CC1)Nc1nccc(N3CCOCC3)c1C(C)O2 (stereo not shown) [Compound 161] | > 10000 | 123 | 0.0363 | 3.09e-05 | 851 |  |  |  |  |  |  | 
C=CC(=O)N1CCC(N2CC(c3cc4c(c(C)n3)OCc3c(N5CCOCC5)ccnc3N4)C2)CC1 [Compound 165] |  |  | 0.0638 |  |  |  |  |  | 6030 | 57.5 | 5.16e-05 | 808
C=CC(=O)N1CC(N2CC(c3cc(F)c4c(c3)Nc3nccc(N5CCOCC5)c3CO4)C2)C1 [Compound 166] | > 10000 | 75.9 | 0.0262 | 5.16e-05 | 1970 |  |  |  |  |  |  | 
C#Cc1cc2c(cc1C1CCN(C3CN(C(=O)C=C)C3)CC1)Nc1nccc(C3CCOCC3)c1C(C)O2 (stereo not shown) [Compound 169] | > 10000 | 53.7 | 0.0532 | 3.63e-05 | 682 |  |  |  |  |  |  | 
C=CC(=O)N1CC(N2CCC(c3cc4c(cc3C#N)OCc3c(N5CCOCC5)ccnc3N4)CC2)C1 [Compound 174] | > 10000 | 324 | 0.143 | 5.74e-05 | 401 |  |  |  |  |  |  | 
C#Cc1cc2c(cc1C1CCN(C3CN(C(=O)C=C)C3)CC1)Nc1nccc(N3CCOCC3)c1CO2 [Compound 175] | > 10000 | 240 | 0.0695 | 4.03e-05 | 580 |  |  |  |  |  |  | 
C=CC(=O)Nc1ccc(-c2ccc3c(c2)Nc2nccc(N4CCOCC4)c2CO3)cn1 [Compound 178] | 6760 | 22.4 |  |  |  | 1910 |  |  |  |  |  | 
C#Cc1cc(C2CCN(C3CN(C(=O)C=C)C3)CC2)cc2c1OC(C)c1c(N3CCOCC3)ccnc1N2 (stereo not shown) [Compound 181] | > 10000 | ~20.9 |  |  |  | 864 |  |  |  |  |  | 
C=C(F)C(=O)N1CC(N2CCC(c3ccc4c(c3)Nc3nccc(C5CCOCC5)c3CO4)CC2)C1 [Compound 188] | > 10000 | 1070 | 0.507 | 3.02e-05 | 59.6 |  |  |  |  |  |  | 

Continued, in another order:

IC50 [1, 4] [nM] | IC50 [2, 5] [nM] | Ki [3] [µM] | kinact [3, 6] [s⁻¹] | kinact/KI [3, 7] [M⁻¹ s⁻¹] | kinact/KI [3, 8] [M⁻¹ s⁻¹] | CDK7_A549 mutant hCDK7(pIC50) ([1]; A549 cells overexpressing CDK7-mutant (C312S), RNA PolII Ser5 phosphorylation, averaged over all measurements) | CDK7_A549 Wild-type CDK7 (pIC50) ([2]; A549 cells, wild-type CDK7, RNA PolII Ser5 phosphorylation, averaged over all measurements) | Compound | IC50 ([1]; A549, read-out: CDK7_A549 mutant hCDK7(pIC50) (converted)) [nM] | IC50 ([2]; A549, read-out: CDK7_A549 Wild-type CDK7 (pIC50) (converted)) [nM] | kinact ([3]; read-out: CDK7 (20 nM enz.) (kinact, s^−1)) [s⁻¹] | kinact/KI ([3]; read-out: CDK7 (20 nM enz.) (kinact/KI, M^−1*s^−1)) [M⁻¹ s⁻¹]
> 10000 | 64.6 | 0.0393 | 6.88e-05 | 1750 |  |  |  | C=CC(=O)Nc1ccc(-c2cc3c(cn2)OCc2c(N4CCOCC4)ccnc2N3)cc1 [Compound 160] |  |  |  | 
> 10000 | 182 | 0.149 | 4.88e-05 | 327 |  |  |  | C=CC(=O)N1CC2(CC(c3cc(F)c4c(c3)Nc3nccc(N5CCOCC5)c3CO4)C2)C1 [Compound 162] |  |  |  | 
> 10000 | 105 | 0.0325 | 5.4e-05 | 1660 |  |  |  | C=CC(=O)N1CC(N2CC(c3ccc4c(c3)Nc3nccc(C5CCOCC5)c3CO4)C2)C1 [Compound 167] |  |  |  | 
7760 | 120 | 0.125 | 3.7e-05 | 296 |  |  |  | C=CC(=O)N1CCC(N2CC(c3cc4c(c(C)n3)OCc3c(-c5cnn(C)c5)ccnc3N4)C2)CC1 [Compound 170] |  |  |  | 
> 10000 | 186 | 0.0372 | 5.38e-05 | 1440 |  |  |  | C=CC(=O)N1CC(N2CC(c3ccc4c(c3)Nc3nccc(-c5cnn(C)c5)c3CO4)C2)C1 [Compound 176] |  |  |  | 
 |  |  |  |  | 1440 | <5 | 7.37 | C=CC(=O)N1CC(N2CCC(c3cc(F)c4c(c3)Nc3nccc(-c5cnn(C)c5)c3CO4)CC2)C1 [Compound 189] |  |  |  | 
